Results on four compounds are retold here after ChEMBL document CHEMBL1156958, “Effect of essential oils, such as raspberry ketone and its derivatives, on antiandrogenic activity based on in vitro reporter gene assay” (Bioorg Med Chem Lett, 2010).

Series [1] addresses T1, Androgen receptor (Homo sapiens, UniProt P10275).
T1 sequence (P10275 whole entry): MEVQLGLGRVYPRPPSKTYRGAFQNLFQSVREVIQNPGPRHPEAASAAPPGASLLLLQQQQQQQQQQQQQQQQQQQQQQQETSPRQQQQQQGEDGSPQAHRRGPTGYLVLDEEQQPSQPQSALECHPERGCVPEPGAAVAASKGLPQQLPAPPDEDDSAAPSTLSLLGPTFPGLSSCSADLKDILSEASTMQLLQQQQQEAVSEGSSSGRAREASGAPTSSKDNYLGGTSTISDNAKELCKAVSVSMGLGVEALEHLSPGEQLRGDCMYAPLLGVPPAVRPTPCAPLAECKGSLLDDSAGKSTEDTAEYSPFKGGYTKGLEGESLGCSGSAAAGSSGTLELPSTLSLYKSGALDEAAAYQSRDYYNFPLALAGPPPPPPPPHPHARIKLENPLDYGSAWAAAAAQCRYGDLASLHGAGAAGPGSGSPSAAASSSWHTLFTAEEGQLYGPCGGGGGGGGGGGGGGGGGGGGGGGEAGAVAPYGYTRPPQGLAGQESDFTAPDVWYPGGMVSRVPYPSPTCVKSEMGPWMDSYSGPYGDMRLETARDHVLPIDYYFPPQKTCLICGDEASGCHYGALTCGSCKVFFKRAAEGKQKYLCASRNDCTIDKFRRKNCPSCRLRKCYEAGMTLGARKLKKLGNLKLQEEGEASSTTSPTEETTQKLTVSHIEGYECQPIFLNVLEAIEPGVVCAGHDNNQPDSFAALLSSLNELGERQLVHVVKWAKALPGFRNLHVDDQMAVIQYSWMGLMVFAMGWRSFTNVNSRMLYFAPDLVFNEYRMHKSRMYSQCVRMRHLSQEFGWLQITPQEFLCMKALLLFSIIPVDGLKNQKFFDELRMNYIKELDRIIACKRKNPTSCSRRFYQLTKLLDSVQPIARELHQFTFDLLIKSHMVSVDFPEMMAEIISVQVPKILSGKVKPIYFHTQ
The experiment in a line: Antagonist activity at AR in human MDA-kb2 cells co-transfected with MMTV-luc assessed as decrease in DHT-induced luciferase activity by reporter gene assay. It counts as functional, cell-based.

Series [2] concerns Rattus norvegicus. The experiment in a line: Drug level in Wistar rat blood at 200 mg/kg. It counts as ADME, organism-based. Also on record: dose 200 mg/kg. The note with it: in vivo.
For series [3], the system named is Rattus norvegicus. As to the kind of experiment: Drug level in Wistar rat blood at 10 g/kg. The conditions noted are these: in vivo, 10000 mg/kg. It counts as ADME, organism-based.

On to `COc1cc(CCC(C)=O)ccc1O` [ZINGERONE], for which the IC50 is 153 µM in series [1] (read-out: IC50) and 151 µM in series [1] (read-out: pIC50 (converted)).
In the same order, the values of `CC(=O)Cc1ccc(O)cc1` are 420 µM and 417 µM.
In turn, `CC(C)(C)CC(C)(C)c1ccc(O)cc1` came in with a Drug uptake in series [2] of 80 ng/mL.
`CC(=O)CCc1ccc(O)cc1` [RASPBERRYKETONE]: the Drug uptake in series [3] came out at 4000 ng/mL.
